“And” between values parts separate entries of the source, which are not always exact repeats. Equal entries are not always repeated. Blank lines part the entries; values can stand above or below the molecule they belong to.
Legend:
[1] = biological target: procaine-binding aptamer; experiment: Cyclic voltammetry ΔEP interrogation of procaine-detecting E-AB sensors in undiluted serum
Method: (§1) ΔEP-based interrogation of E-AB sensors supports molecular measurements in complex media such as undiluted serum. Moreover, the approach can be used to interrogate E-AB sensors detecting different molecular targets. […] Furthermore, the relative change in ΔEP at 10 mM tobramycin was 30% less than the gain seen in phosphate-buffered saline. Both of these effects were previously reported for serum tobramycin E-AB measurements performed by chronoamperometry, confirming that ΔEP is not more prone to fouling than, for example, chronoamperometric current decay lifetimes. […] Last, procaine-detecting E-AB sensors presented the largest change in ΔEP, corresponding to a relative decrease of ˜80% at saturating procaine concentrations (FIG. 11C). Based on our calibration curve, the procaine-binding aptamer has a KD of ˜500 μM, slightly better than the affinity obtained by, for example, square-wave voltammetry (KD˜2 mM, FIG. 12). […]
(§2) Electrochemical measurements. […] Cyclic voltammograms were recorded at different scan rates in the potential window from −0.5 V to +0.1 V vs Ag/AgCl (1M KCl). Square-wave voltammograms were recorded from 0 V to −0.5 V vs Ag/AgCl (1M KCl) with an amplitude of 50 mV, a step size of 1 mV, and at 300 Hz. […]
(§3) Electrode modification. […] After rinsing with water, electrodes were ready for use. […]

[2] = biological target: procaine-binding aptamer; experiment: Square wave voltammetry calibration of procaine-binding E-AB sensors; settings: 100 Hz, amplitude 50 mV, step 1 mV, read-out: KD (dissociation constant) by square-wave voltammetry
Method: FIG. 12 is a plot showing a calibration curve for procaine-binding E-AB sensors obtained by square wave voltammetry. The Hill's coefficient and dissociation constant obtained were 0.97±0.05 and 1.9±0.2 mM, respectively. Each point represents the average of 5·measurements at a frequency of 100 Hz, amplitude of 50 mV, and step potential of 1 mV.
These sequences were purchased modified on the 5′end with hexanethiol and on the 3′end with MB, and double HPLC purified. To prepare aptamer solutions for electrode modification, 1 μL of 100 μM of the modified sequences was incubated with 2 μL of 5 mM TCEP solution in water for 1 hour to reduce the disulfide bonds. Then, we diluted the aptamer solutions in 1 mM 6-mercaptohexanol aqueous solution to a final aptamer concentration of 500 nM.
as §2, with “measurements. Gold working (PN 002314, d=1.6 mm) and coiled platinum wire counter electrodes (PN 012961) were purchased from ALS Inc. (Japan). Ag/AgCl (1M KCl) reference electrodes (PN CHI111) were purchased from CH Instruments (USA).” for “measurements.”
as §3

[3] = test system: tobramycin-binding aptamer; experiment: Cyclic voltammetry (ΔEP / IP) interrogation of tobramycin-detecting E-AB sensors
From the text: The magnitude of ΔEP in cyclic voltammetry can be used to interrogate changes in the apparent electron transfer kinetics of E-AB sensors. ΔEP is affected by a mass transfer (diffusional) component related to the conformation switching behavior of aptamers; thus, measured changes in ΔEP reflect target-binding induced changes in aptamer conformation. We first illustrate this effect employing tobramycin-detecting E-AB sensors (FIG. 5), which have been extensively validated in the literature and represent a well-understood model system. In these E-AB sensors, interrogation by cyclic voltammetry in the absence of target and at voltage scanning rates of ˜1-10 V·s^−1 results in voltammograms with a ΔEP ˜100 mV (FIG. 5A). However, the addition of a saturating concentration of tobramycin (10 mM) causes a significant increase in apparent electron transfer kinetics with a concomitant decrease in ΔEP to ˜30 mV (FIG. 5A, B). Similar measurements at varying tobramycin concentrations can be translated into dose-response curves (FIG. 5C). The dissociation constant estimated by extrapolating the mid-point of these dose-response curves to the x-axis, KD˜80 μM, is similar to previously reported KD measurements based on chronoamperometric and differential pulse measurements.
As with all E-AB interrogation methods, there is a tradeoff between the maximum signal gain observed by ΔEP and the apparent dissociation constant of the sensors. To illustrate this, we measured dose-response curves as shown in FIG. 5C at scanning rates ranging from 0.5 to 100 V·s^−1 (FIG. 6). Then, we determined the apparent dissociation constant at each scanning rate by performing a non-linear regression of the data sets using the Hill isotherm. […] Moreover, the shape of the voltammograms was distorted at fast scanning rates, preventing the accurate determination of ΔEP (FIG. 8). Thus, taking into consideration the results presented in FIGS. 7A and B, we determined that the best CV interrogation rate for tobramycin-detecting E-AB sensor was 5 V·s^−1.
E-AB interrogation via ΔEP achieves larger signal gains relative to interrogation based on CV peak heights. To illustrate this point, we measured dose-response curves at the optimal voltage scanning rate of 5 V·s^−1 and compared the response based on voltammogram peak currents, IP, at varying tobramycin concentrations relative to the proposed ΔEP-based method (FIG. 7C). To achieve a direct comparison between approaches, we calculated the relative change in signal at each concentration with respect to the signal measured in the absence of target (this is common practice in the field). By graphing IP vs concentration, we observed a ‘signal-on’ type of response, with IP increasing to a plateau of 20% relative signal change at saturation. Using ΔEP, in contrast, we observed a ‘signal-off’ type of response, with ΔEP decreasing by 80% relative signal change at saturation. […] On the other hand, ΔEP provides a signal-off response that is less desirable than the signal-on response achieved by monitoring IP. Typically, the use of signal-off sensing is sub-optimal for continuous monitoring in complex fluids, as matrix effects can induce signal decreases unrelated to fluctuations in target concentration that can be confounding during sensing.
ΔEP-based interrogation of E-AB sensors supports molecular measurements in complex media such as undiluted serum. Moreover, the approach can be used to interrogate E-AB sensors detecting different molecular targets. […] Furthermore, the relative change in ΔEP at 10 mM tobramycin was 30% less than the gain seen in phosphate-buffered saline. Both of these effects were previously reported for serum tobramycin E-AB measurements performed by chronoamperometry, confirming that ΔEP is not more prone to fouling than, for example, chronoamperometric current decay lifetimes. […]

[4] = biological target: vancomycin-binding aptamer; experiment: Cyclic voltammetry ΔEP interrogation of vancomycin-detecting E-AB sensors in undiluted serum
Method: as §1, §2, §3

[5] = CV 5 V·s^−1, phosphate-buffered saline, relative to no target

- Kd ([1]; cyclic voltammetry, read-out: KD from calibration curve (ΔEP)): ~500 µM
- relative decrease in ΔEP at saturating concentration ([1]; saturating procaine): ~80%
- Kd [2]: 1900 µM and ~2000 µM
SMILES: CCN(CC)CCOC(=O)c1ccc(N)cc1 [procaine]

- relative change in ΔEP in undiluted serum, less than the gain seen in phosphate-buffered saline ([3]; 10 mM tobramycin, undiluted serum vs phosphate-buffered saline): 30%
- IP (peak current) increase, relative signal change at saturation (signal-on) [3, 5]: 20%
- ΔEP decrease, relative signal change at saturation (signal-off) [3, 5]: 80%
- Kd ([3]; CV at 5 V·s^−1, phosphate-buffered saline, Hill fit, 5 electrodes, read-out: KD (dissociation constant from ΔEP dose-response curve)): 80 ± 7 µM
- ΔEP (peak-to-peak separation) after target addition ([3]; saturating tobramycin 10 mM, without target ~100 mV, scanning rates ~1-10 V·s^−1): ~30 mV
- affinity in undiluted serum relative to phosphate-buffered saline ([3]; undiluted serum, ΔEP-based interrogation): significant decrease in affinity
SMILES: NC[C@H]1O[C@H](O[C@H]2[C@H](O)[C@@H](O[C@H]3O[C@H](CO)[C@@H](O)[C@H](N)[C@H]3O)[C@H](N)C[C@@H]2N)[C@H](N)C[C@@H]1O [tobramycin]

SMILES: CN[C@H](CC(C)C)C(=O)N[C@H]1C(=O)N[C@@H](CC(N)=O)C(=O)N[C@H]2C(=O)N[C@H]3C(=O)N[C@H](C(=O)N[C@H](C(=O)O)c4cc(O)cc(O)c4-c4cc3ccc4O)[C@H](O)c3ccc(c(Cl)c3)Oc3cc2cc(c3O[C@@H]2O[C@H](CO)[C@@H](O)[C@H](O)[C@H]2O[C@H]2C[C@](C)(N)[C@H](O)[C@H](C)O2)Oc2ccc(cc2Cl)[C@H]1O [vancomycin]
- Kd ([4]; read-out: KD from serum calibration curve (ΔEP)): ~60 µM
- total relative change in ΔEP at saturating concentration ([4]; saturating vancomycin): ~50%

Source: US20240125729A1, “METHODS AND RELATED ASPECTS OF DETECTING TARGET MOLECULES USING CYCLIC VOLTAMMETRY” (THE JOHNS HOPKINS UNIVERSITY, priority 2021, published 2024)
